Measured values as given in the NIST ThermoML archive (doi:10.1021/je900437b).
Numbers after ± are expanded uncertainties.

Tests used:
[1] = xn = mol fraction of the nth substance listed; conditions: 101 kPa, Liquid, x1 = 1; for speed of sound: Sing-around technique in a fixed-path interferometer; for mass density: Vibrating tube method
[2] = 101 kPa, Liquid; for speed of sound: Sing-around technique in a fixed-path interferometer; for mass density: Vibrating tube method

Row | SMILES | speed of sound ([1]; 298.15 K) | mass density ([1]; 298.15 K) | speed of sound ([1]; 303.15 K) | mass density ([1]; 303.15 K) | speed of sound ([1]; 308.15 K) | mass density ([1]; 308.15 K) | speed of sound ([1]; 313.15 K) | mass density ([1]; 313.15 K) | speed of sound ([2]; 298.15 K) | mass density ([2]; 298.15 K) | speed of sound ([2]; 303.15 K) | mass density ([2]; 303.15 K) | speed of sound ([2]; 308.15 K) | mass density ([2]; 308.15 K) | speed of sound ([2]; 313.15 K) | mass density ([2]; 313.15 K) | speed of sound ([2]; 318.15 K) | mass density ([2]; 318.15 K) | speed of sound ([2]; 323.15 K) | mass density ([2]; 323.15 K) | also measured
1 | NCCO [2-aminoethan-1-ol] + CN(CCO)CCO | 1719.2 ± 1.3 m/s | 1012.02 ± 0.24 kg/m3 | 1703.1 ± 1.3 m/s | 1008 ± 0.24 kg/m3 | 1686.8 ± 1.3 m/s | 1004.02 ± 0.23 kg/m3 | 1670.5 ± 1.3 m/s | 1000.04 ± 0.23 kg/m3 |  |  |  |  |  |  |  |  |  |  |  |  | speed of sound ([1]; 293.15 K): 1735.5 ± 1.3 m/s; mass density ([1]; 293.15 K): 1015.98 ± 0.24 kg/m3; speed of sound ([1]; 318.15 K): 1654.2 ± 1.3 m/s; mass density ([1]; 318.15 K): 996.029 ± 0.23 kg/m3; speed of sound ([1]; 323.15 K): 1637.9 ± 1.3 m/s; mass density ([1]; 323.15 K): 992.014 ± 0.23 kg/m3
2 | NCCO [2-aminoethan-1-ol] + OCCN(CCO)CCO | 1719.2 ± 1.3 m/s | 1012.02 ± 0.24 kg/m3 | 1703.1 ± 1.3 m/s | 1008 ± 0.24 kg/m3 | 1686.8 ± 1.3 m/s | 1004.02 ± 0.23 kg/m3 | 1670.5 ± 1.3 m/s | 1000.04 ± 0.23 kg/m3 |  |  |  |  |  |  |  |  |  |  |  |  | speed of sound ([1]; 318.15 K): 1654.2 ± 1.3 m/s; mass density ([1]; 318.15 K): 996.029 ± 0.23 kg/m3; speed of sound ([1]; 323.15 K): 1637.9 ± 1.3 m/s; mass density ([1]; 323.15 K): 992.014 ± 0.23 kg/m3
3 | NCCO [2-aminoethan-1-ol] |  |  |  |  |  |  |  |  | 1719.2 ± 1.3 m/s | 1012.02 ± 0.24 kg/m3 | 1703.1 ± 1.3 m/s | 1008 ± 0.24 kg/m3 | 1686.8 ± 1.3 m/s | 1004.02 ± 0.23 kg/m3 | 1670.5 ± 1.3 m/s | 1000.04 ± 0.23 kg/m3 | 1654.2 ± 1.3 m/s | 996.029 ± 0.23 kg/m3 | 1637.9 ± 1.3 m/s | 992.014 ± 0.23 kg/m3 | speed of sound ([2]; 293.15 K): 1735.5 ± 1.3 m/s; mass density ([2]; 293.15 K): 1015.98 ± 0.24 kg/m3
4 | CC(C)(N)CO [2-amino-2-methylpropan-1-ol] |  |  |  |  |  |  |  |  | 1483.4 ± 5 m/s | 932.596 ± 4.7 kg/m3 | 1461.2 ± 5 m/s | 928.395 ± 4.7 kg/m3 | 1442.4 ± 5 m/s | 924.174 ± 4.6 kg/m3 | 1423.8 ± 5 m/s | 919.945 ± 4.6 kg/m3 | 1405.3 ± 5 m/s | 915.702 ± 4.6 kg/m3 | 1386.9 ± 5 m/s | 911.431 ± 4.5 kg/m3 | speed of sound ([2]; 293.15 K): 1501.4 ± 5 m/s; mass density ([2]; 293.15 K): 936.751 ± 4.8 kg/m3
5 | NCCO [2-aminoethan-1-ol] + CC(C)(N)CO | 1719.2 ± 1.3 m/s | 1012.02 ± 0.24 kg/m3 | 1703.1 ± 1.3 m/s | 1008 ± 0.24 kg/m3 | 1686.8 ± 1.3 m/s | 1004.02 ± 0.23 kg/m3 | 1670.5 ± 1.3 m/s | 1000.04 ± 0.23 kg/m3 |  |  |  |  |  |  |  |  |  |  |  |  | speed of sound ([1]; 293.15 K): 1735.5 ± 1.3 m/s; mass density ([1]; 293.15 K): 1015.98 ± 0.24 kg/m3; speed of sound ([1]; 318.15 K): 1654.2 ± 1.3 m/s; mass density ([1]; 318.15 K): 996.029 ± 0.23 kg/m3; speed of sound ([1]; 323.15 K): 1637.9 ± 1.3 m/s; mass density ([1]; 323.15 K): 992.014 ± 0.23 kg/m3
6 | CN(CCO)CCO [N-methyldiethanolamine] |  |  |  |  |  |  |  |  | 1570.1 ± 2.1 m/s | 1038.29 ± 0.92 kg/m3 | 1554.8 ± 2.1 m/s | 1034.36 ± 0.91 kg/m3 | 1539.5 ± 2.1 m/s | 1030.43 ± 0.9 kg/m3 | 1524.2 ± 2.1 m/s | 1026.48 ± 0.89 kg/m3 | 1508.8 ± 2.1 m/s | 1022.53 ± 0.88 kg/m3 | 1493.4 ± 2.1 m/s | 1018.58 ± 0.88 kg/m3 | speed of sound ([2]; 293.15 K): 1585.5 ± 2.1 m/s; mass density ([2]; 293.15 K): 1042.2 ± 0.92 kg/m3
7 | OCCN(CCO)CCO [triethanolamine] |  |  |  |  |  |  |  |  | 1610.5 ± 1.3 m/s | 1120.82 ± 0.33 kg/m3 | 1600.5 ± 1.3 m/s | 1118.06 ± 0.32 kg/m3 | 1595.5 ± 1.3 m/s | 1115.26 ± 0.32 kg/m3 | 1587 ± 1.3 m/s | 1112.4 ± 0.32 kg/m3 | 1578.8 ± 1.3 m/s | 1109.6 ± 0.32 kg/m3 | 1570.6 ± 1.3 m/s | 1106.78 ± 0.32 kg/m3 | 
